Measured values taken from ChEMBL document CHEMBL1159023, “Fistularin 3 and 11-ketofistularin 3. Feline leukemia virus active bromotyrosine metabolites from the marine sponge Aplysina archeri” (J Nat Prod, 1992).

Columns and labels:
[1] = Ratio of ID50 for cat CRFK cells to ED50 for Feline leukemia virus
[2] = Cytotoxicity against cat CRFK cells assessed as reduction in cell viability after 5 days by MTT assay; format: cell-based, Felis catus; conditions: read-out: ID50
Feline leukemia virus = test: Antiviral activity against Feline leukemia virus infected in cat CRFK cells assessed as inhibition of viral replication after 7 days by ELISA; format: functional; conditions: 168 h, read-out: ED50 (the source's name)

Row | EC50 (Feline leukemia virus) [µM] | SMILES | Ratio [1] | CC50 at 120 h [2] [µM]
1 | 0.1 | Cc1cn([C@H]2C[C@H](N=[N+]=[N-])[C@@H](CO)O2)c(=O)[nH]c1=O [ZIDOVUDINE] | 15170 | 1520
2 | 15 | Nc1ccn([C@H]2CC[C@@H](CO)O2)c(=O)n1 [ZALCITABINE] | 133 | 1990
3 | 42 | COC1=C(Br)[C@@H](O)[C@]2(C=C1Br)CC(C(=O)NCC(O)c1cc(Br)c(OCC(=O)CNC(=O)C3=NO[C@]4(C=C(Br)C(OC)=C(Br)[C@@H]4O)C3)c(Br)c1)=NO2 (some centres not stated) | >11 | > 449
4 | 22 | COC1=C(Br)[C@@H](O)[C@]2(C=C1Br)CC(C(=O)NCC(O)c1cc(Br)c(OCC(O)CNC(=O)C3=NO[C@]4(C=C(Br)C(OC)=C(Br)[C@@H]4O)C3)c(Br)c1)=NO2 (some centres not stated) [FISTULARIN 3] | >20 | > 449
